Laboratory results published in ChEMBL document CHEMBL4831552, “Novel Substituted Piperazine Amide Compounds as Indoleamine-2,3-dioxygenase (IDO) Inhibitors” (ACS Med Chem Lett, 2021).

Molecular target: Indoleamine 2,3-dioxygenase 1 (Homo sapiens, UniProt P14902)
Assay: Inhibition of IDO1 in IFN-gamma stimulated human HeLa cells incubated for 48 hrs by fluorescence microplate reader assay

Chain of Indoleamine 2,3-dioxygenase 1 (P14902 whole entry): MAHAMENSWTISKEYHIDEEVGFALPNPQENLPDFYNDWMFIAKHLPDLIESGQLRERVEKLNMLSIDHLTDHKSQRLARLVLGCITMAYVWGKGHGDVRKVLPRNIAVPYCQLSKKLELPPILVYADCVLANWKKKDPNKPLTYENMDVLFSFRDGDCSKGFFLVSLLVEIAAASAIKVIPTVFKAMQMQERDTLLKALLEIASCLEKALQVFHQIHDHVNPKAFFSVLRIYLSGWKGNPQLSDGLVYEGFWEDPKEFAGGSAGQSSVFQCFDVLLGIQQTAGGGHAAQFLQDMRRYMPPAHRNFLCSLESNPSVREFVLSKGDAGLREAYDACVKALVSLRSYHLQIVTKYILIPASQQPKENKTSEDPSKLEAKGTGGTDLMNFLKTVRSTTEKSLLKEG

| IC50 | SMILES |
| --- | --- |
| < 0.51 nM | Cc1cccc(N2CCN(C(=O)Cn3nc(C(=O)N4CCC5(CO)CC4C5)c4c3C[C@H]3C[C@@H]43)CC2)c1C |
| 0.59 nM | CC(=O)NC1CCN(C(=O)c2nn(CC(=O)N3CCN(c4cccc(C)c4Cl)CC3)c3c2C2CCCCC2C3)CC1 (configuration not stated) |
